Experimental data published in ChEMBL document CHEMBL1129017, “Chemical feasibility studies of a potential coumarin-based prodrug system” (Bioorg Med Chem Lett, 1996).

Assay: Compound was evaluated for its half life period.
Assay type: ADME

Compound	half-life [min]
CC(=O)Oc1ccccc1/C=C\C(=O)NCc1ccccc1	16.3
CC(=O)Oc1ccccc1/C=C\C(=O)N(C)Cc1ccccc1	31.2
COc1ccc(NC(=O)/C=C\c2ccccc2OC(C)=O)cc1	1.63
